Values after ≈ are worked out from the molar mass of the structure shown.
Tests used:
Escherichia coli [1] = assay: MIC/MBC, paper disk diffusion; type: cell-based; details: Escherichia coli
Experimental: (§1) Antimicrobial activities of the newly formed Schiff bases (6a–d, 7a–d, 8a–d, and 9a–d) and reference drugs were evaluated against three Gram-positive, three Gram-negative, and two fungi strain at Al-Azhar University, Cairo, Egypt. The inhibition zones (IZ, in mm ± standard deviation) and the minimal inhibitory concentration (MIC) (μg/mL) were determined by the conventional paper disk diffusion method.
(§2) In Vitro Antimicrobial Activities […]
(§3) DMSO was used for dissolving […]
(§4) the tested microorganisms.
(§5) The minimum inhibitory concentration (MIC), the minimum bactericidal concentration (MBC, µg/ml) and […]
(§6) and 9b) were determined by the conventional technique termed paper disk diffusion, by applying paper […]
(§7) Bacteria were grown on nutrient agar medium, while fungi and yeast were grown on Sabouraud agar medium. The purified streptomycin was dissolved in […]
(§8) inoculated with test organism. Growth inhibition was examined after 24 hr. from incubation at 37 °C for bacteria and after 72 hr. incubation at 27 °C for fungi and yeast. Each test was repeated three times. MIC was expressed as the lowest concentration inhibiting test organism’s growth. […]

Bacillus subtilis [2] = assay: MIC/MBC, paper disk diffusion; type: cell-based
Experimental: as §1, §2, §3, §4, §5, §6, §7, §8

Salmonella typhi [3] = assay: MIC/MBC, paper disk diffusion; type: cell-based
Experimental: as §1, §2, §3, §4, §5, §6, §7, §8

Pseudomonas aeruginosa [4] = assay: MIC/MBC, paper disk diffusion; type: cell-based; details: Pseudomonas aeruginosa
Experimental: as §1, §2, §3, §4, §5, §6, §7, §8

Staphylococcus aureus [5] = assay: MIC/MBC, paper disk diffusion; type: cell-based
Experimental: as §1, §2, §3, §4, §5, §6, §7, §8

Enterococcus faecalis [6] = assay: MIC/MBC, paper disk diffusion; type: cell-based
Experimental: as §1, §2, §3, §4, §5, §6, §7, §8

E. coli ATCC BAA-196 [7] = assay: Inhibition zone against MDRB, agar plate diffusion; type: cell-based
[8] = test system: P. aeruginosa ATCC BAA-2111; assay: MIC/MBC against MDRB, paper disk diffusion; type: cell-based; details: Pseudomonas aeruginosa, ATCCBAA2111
Source text: (§9) The inhibition zone (IZ, mm±standard deviation) of pyrazole Schiff bases ( 6b, 7b, 7c, 8a, 8d and 9b) was
(§10) measurement according to the agar plate diffusion method against a panel of multidrug-resistant bacteria
(MDRB). […]

S. aureus ATCC 33591 [9] = assay: MIC/MBC against MDRB, paper disk diffusion; type: cell-based; details: Staphylococcus aureus, ATCC33591
Source text: as §9, §10
(MDRB). […]

[10] = test system: S. aureus ATCC 43300 (MRSA); assay: MIC/MBC against MDRB, paper disk diffusion; type: cell-based; details: Staphylococcus aureus
Source text: as §9, §10
(MDRB). […]

E. coli ATCC BAA-196 [11] = assay: MIC/MBC against MDRB, paper disk diffusion; type: cell-based; details: Escherichia coli, ATCCBAA196
Source text: as §9, §10
(MDRB). […]

Escherichia coli [12] = assay: Inhibition zone, agar plate diffusion; type: cell-based; details: read-out: Inhibition zone (IZ)
Experimental: as §1
(§11) In Vitro Antimicrobial Activities
(§12) The antimicrobial activities inhibition zone (IZ, mm±standard deviation) of pyrazole Schiff bases ( 6a-d , 7a-d, 8a-d and 9a-d ) was measurement according to the agar plate diffusion method. Briefly, 100 µl of the […]
(§13) […] of each sample (at 0.5 mg/mL) was added to each well (10 mm diameter holes cut in the agar gel). The plates were incubated for 24 h at 37 °C (for bacteria and yeast) and for 72 h at 27 °C (for filamentous fungi), each test was repeated three times. After incubation, the microorganism's growth was observed. […]
(§14) drugs while Amphotericin B was used as standard antifungal drug. The resulting inhibition zone diameters were measured in millimeters and used as criterion for the antimicrobial activity. Solvent controls (DMSO) were included in every experiment as negative controls. DMSO was used for dissolving […]
(§15) the tested microorganisms. […]

Bacillus subtilis [13] = assay: Inhibition zone, agar plate diffusion; type: cell-based; details: read-out: Inhibition zone (IZ)
Experimental: as §1, §11, §12, §13, §14, §15

Pseudomonas aeruginosa [14] = assay: Inhibition zone, agar plate diffusion; type: cell-based; details: read-out: Inhibition zone (IZ)
Experimental: as §1, §11, §12, §13, §14, §15

Enterococcus faecalis [15] = assay: Inhibition zone, agar plate diffusion; type: cell-based; details: read-out: Inhibition zone (IZ)
Experimental: as §1, §11, §12, §13, §14, §15

Fusarium oxysporum [16] = assay: MIC/MFC, paper disk diffusion; type: cell-based; details: Fusarium oxysporum
Experimental: as §1, §2, §3, §4, §5, §6, §7, §8

Candida albicans [17] = assay: MIC/MFC, paper disk diffusion; type: cell-based; details: Candida albicans
Experimental: as §1, §2, §3, §4, §5, §6, §7, §8

S. aureus ATCC 33591 [18] = assay: Inhibition zone against MDRB, agar plate diffusion; type: cell-based
[19] = test system: mammary gland breast cancer cell line (MCF-7); assay: Antiproliferative activity, MTT assay; type: cell-based, human; details: Homo sapiens, MCF7, 48 h, read-out: IC50 MCF-7
Experimental: (§16) 3-[4, 5-Dimethyl-2-thiazolyl)-2, 5-diphenyl-2 H-tetrazolium bromide (MTT) protocol is based on the cleavage of the tetrazolium salt by mitochondrial dehydrogenases in viable cells. Cells were dispensed in a 96 well sterile microplate (5 x 10^4 cells/well), and incubated at 37 °C with series of different concentrations, in DMSO, of each tested compound or Doxorubicin ® (positive control) for 48 h in a serum free medium prior to the MTT assay. After incubation, media were carefully removed, 40 µL of MTT (2.5 mg/mL) were added to each well and then incubated for an additional 4 h. The purple formazan dye crystals were solubilized by the addition of 200 µL of DMSO. The absorbance was measured at 590 nm using a SpectraMax® Paradigm® Multi-Mode microplate reader. The relative cell viability was expressed as the mean percentage of viable cells compared to the untreated control cells.
(§17) All experiments were conducted in triplicate and repeated in three different days. All the values were represented as mean ± SD. IC 50s were determined by probit analysis using SPSS software program (SPSS

[20] = test system: hepatocellular carcinoma cell line (HepG2); assay: Antiproliferative activity, MTT assay; type: cell-based, human
Experimental: as §16, §17

Salmonella typhi [21] = assay: Inhibition zone, agar plate diffusion; type: cell-based; details: Salmonella enterica, St, mm ± standard deviation, sample at 0.5 mg/mL, read-out: Inhibition zone (IZ)
Experimental: as §1, §11, §12, §13, §14, §15
(§18) Bacteria were grown on nutrient agar medium, while fungi and yeast were grown on Sabouraud agar medium. […]

Staphylococcus aureus [22] = assay: Inhibition zone, agar plate diffusion; type: cell-based; details: read-out: Inhibition zone (IZ)
Experimental: as §1, §11, §12, §13, §14, §15, §18

Fusarium oxysporum [23] = assay: Inhibition zone, agar plate diffusion; type: cell-based; details: read-out: Inhibition zone (IZ)
Experimental: as §1, §11, §12, §13, §14, §15, §18

Candida albicans [24] = assay: Inhibition zone, agar plate diffusion; type: cell-based; details: read-out: Inhibition zone (IZ)
Experimental: as §1, §11, §12, §13, §14, §15, §18

[25] = test system: P. aeruginosa ATCC BAA-2111; assay: Inhibition zone against MDRB, agar plate diffusion; type: cell-based
[26] = test system: S. aureus ATCC 43300 (MRSA); assay: Inhibition zone against MDRB, agar plate diffusion; type: cell-based

SMILES: COc1ccc(Nc2n[nH]c(N=Cc3c(C)nn(-c4ccccc4)c3Cl)c2C(=O)Nc2ccccc2)cc1 [7b, 5-((5-Chloro-3-methyl-1-phenyl-1H-pyrazol-4-yl)methyleneamino)-3-(p-methoxyphenylamino)-N-phenyl-1H-pyrazole-4-carboxamide]
- MIC (Escherichia coli [1]): 7.81 µg/mL (≈ 14.8 µM)
- MBC (Escherichia coli [1]; E. coli): 12.5 µg/mL (≈ 23.7 µM)
- Fold more potent than Tetracycline (MIC) (Bacillus subtilis [2]; B. subtilis): 5 fold
- MIC (Bacillus subtilis [2]; Bacillus subtilis): 5.57 µg/mL (≈ 10.6 µM)
- MBC (Bacillus subtilis [2]; Bacillus subtilis, B. subtilis): 10.6 µg/mL (≈ 20.1 µM)
- Fold more potent than Tetracycline (MIC) (Salmonella typhi [3]): 8 fold
- Fold more potent than the standard drug (MBC) (Salmonella typhi [3]; S. typhi): ~6.6 fold
- MIC (Salmonella typhi [3]; Salmonella enterica, S. typhi): 3.9 µg/mL (≈ 7.41 µM)
- MBC (Salmonella typhi [3]; Salmonella enterica, S. typhi, read-out: MBC): 6.63 µg/mL (≈ 12.6 µM)
- MIC (Pseudomonas aeruginosa [4]): 31.2 µg/mL (≈ 59.4 µM)
- MBC (Pseudomonas aeruginosa [4]; P. aeruginosa): 59.4 µg/mL (≈ 113 µM)
- Fold more potent than Tetracycline (MIC) (Staphylococcus aureus [5]; S. aureus): 32 fold
- MIC (Staphylococcus aureus [5]; Staphylococcus aureus): 1.95 µg/mL (≈ 3.71 µM)
- MBC (Staphylococcus aureus [5]; Staphylococcus aureus, S. aureus): 3.7 µg/mL (≈ 7.03 µM)
- MIC (Enterococcus faecalis [6]): 3.9 µg/mL (≈ 7.41 µM)
- MBC (Enterococcus faecalis [6]; E. faecalis): 6.63 µg/mL (≈ 12.6 µM)
- Mean Diameter of Inhibition Zone against MDRB (E. coli ATCC BAA-196 [7]): 20 ± 0.44 mm
- MBC [8]: 15.6 µg/mL (≈ 29.7 µM)
- MIC [8]: 7.81 µg/mL (≈ 14.8 µM)
- MBC (S. aureus ATCC 33591 [9]): 16 µg/mL (≈ 30.4 µM)
- MIC (S. aureus ATCC 33591 [9]): 8.88 µg/mL (≈ 16.9 µM)
- MBC [10]: 15.6 µg/mL (≈ 29.7 µM)
- MIC [10]: 7.81 µg/mL (≈ 14.8 µM)
- MBC (E. coli ATCC BAA-196 [11]): 18.5 µg/mL (≈ 35.2 µM)
- MIC (E. coli ATCC BAA-196 [11]): 9.25 µg/mL (≈ 17.6 µM)
- zone of inhibition at 500 µg/mL (Escherichia coli [12]): 21 ± 0.14 mm
- zone of inhibition at 500 µg/mL (Bacillus subtilis [13]): 28 ± 0.16 mm
- zone of inhibition at 500 µg/mL (Pseudomonas aeruginosa [14]): 24 ± 0.78 mm
- zone of inhibition at 500 µg/mL (Enterococcus faecalis [15]): 25 ± 0.3 mm
- MFC (Fusarium oxysporum [16]): 46.9 µg/mL (≈ 89.1 µM)
- MIC (Fusarium oxysporum [16]): 31.2 µg/mL (≈ 59.4 µM)
- MFC (Candida albicans [17]): 28.1 µg/mL (≈ 53.4 µM)
- MIC (Candida albicans [17]): 15.6 µg/mL (≈ 29.7 µM)
- Mean Diameter of Inhibition Zone against MDRB (S. aureus ATCC 33591 [18]): 15 ± 0.41 mm
- IC50 [19]: 4.81 ± 0.25 µM
- Fold against doxorubicin (IC50) ([20]; HepG-2): 0.54 fold
- IC50 ([20]; Homo sapiens, HepG2, 48 h, read-out: IC50 HepG-2): 7.18 ± 0.49 µM
- zone of inhibition at 500 µg/mL (Salmonella typhi [21]): 22 ± 0.12 mm
- zone of inhibition at 500 µg/mL (Staphylococcus aureus [22]): 23 ± 0.55 mm
- zone of inhibition at 500 µg/mL (Fusarium oxysporum [23]): 17 ± 0.45 mm
- zone of inhibition at 500 µg/mL (Candida albicans [24]): 21 ± 0.2 mm
- Mean Diameter of Inhibition Zone against MDRB [25]: 21 ± 0.33 mm
- Mean Diameter of Inhibition Zone against MDRB [26]: 18 ± 0.11 mm
